One may read the solubility as how much of the substance goes into solution per volume.

Data set [1] relates to U2OS.eGFP.PEST cells and HEK293T cells. Put plainly: Cell viability (ATP content). Particulars: 5-20 μM, 24 h.
A short description of a further data set: physchem. Particulars: PBS, aqueous buffer.
Data set [2] concerns the target T1, SpCas9 (Streptococcus pyogenes serotype M1, UniProt Q99ZW2). Put plainly: Cellular thermal shift assay (CETSA) in WM793 melanoma cells. In kind it is cell-based, S. pyogenes. Particulars: 15 μM, 24 h, WM793 cells stably expressing SpCas9. The procedure:
Cellular Thermal Shift Assay (CETSA). Approximately 1× 10^6 cells pre-incubated with either DMSO or 15 μM BRD0539 for 24 h were resuspended in PBS and transferred to 200 μL PCR tubes. The suspended cells were heated to a different temperature for 3 min followed by lysis in 100 μL RIPA buffer containing protease inhibitors at 4° C. for 30 min. The clear cell lysate was collected by centrifuging the suspensions at 20,000×g for 20 min. The supernatant was transferred to a fresh tube and processed for Western blotting. Western blotting was performed using SDS-PAGE. In a typical experiment, 10 μg of proteins were electrophoresed on a 4-12% Bis-Tris gel and proteins were transferred to a PVDF membrane and probed with primary anti-SpCas9 antibody (abcam #ab191468). The membrane was imaged and bands were quantified using the LI-COR Odyssey imaging system. The CETSA curves were fitted with the equation, y=(U-L)/(1+e^(−(A/T−1)B))+L where, U and L are the upper and lower asymptotes, A is a half-way temperature, and B controls the slope of the sigmoid; temperature T is expressed in K. After the fitting, the data were re-normalized by dividing by U and the Tm was calculated using the formula Tm=AB/(B+log(1−2L/U)).

The target of data set [3] is T1, SpCas9. Put plainly: Reversibility of SpCas9 inhibition (pulse-chase, eGFP-disruption assay). In kind it is cell-based, S. pyogenes. Details: made in house; host or cells: E. coli Rosetta (DE3). Particulars: 15 μM BRD0539 or SpCas9:gRNA:AcrIIA4 complex, media swap 2-24 h. The procedure:
Reversal of BRD0539-mediated inhibition of SpCas9 was performed in the eGFP-disruption assay where 2×10^5 U2OS.eGFP.PEST cells were nucleofected with preformed SpCas9:gRNA complex as previously discussed. Approximately 22,000 transfected cells/well were plated in 4 replicates in a 96-well plate (Corning® 3904) along with 15 μM of BRD0539 or DMSO. For AcrIIA4 reversibility experiment, a preformed SpCas9:gRNA (10 pmol) was incubated with AcrIIA4 (5×) for 10 min and then nucleofected to U2OS.eGFP.PEST cells following the aforementioned protocol. The media were swapped with the fresh media containing no BRD0539/AcrIIA4 at the indicated time point (2-24 h) and the cells were allowed to grow until 24 h post-nucleofection. Cells were then fixed using 4% paraformaldehyde and imaged with the HCS NuclearMask™ Blue Stain (Life Technologies) as the nuclear counter-staining agent. Imaging was performed with an ImageXpress Micro automated microscope (Molecular Devices) at 10× magnification under three excitation channels (blue, green and red) acquiring nine sites per well. Images were analyzed using MetaXpress software and data were plotted using GraphPad Prism 6.

The structures appear in SMILES notation. Values after ≈ are worked out from the molar mass of the structure shown.

T1 sequence (Q99ZW2 whole entry): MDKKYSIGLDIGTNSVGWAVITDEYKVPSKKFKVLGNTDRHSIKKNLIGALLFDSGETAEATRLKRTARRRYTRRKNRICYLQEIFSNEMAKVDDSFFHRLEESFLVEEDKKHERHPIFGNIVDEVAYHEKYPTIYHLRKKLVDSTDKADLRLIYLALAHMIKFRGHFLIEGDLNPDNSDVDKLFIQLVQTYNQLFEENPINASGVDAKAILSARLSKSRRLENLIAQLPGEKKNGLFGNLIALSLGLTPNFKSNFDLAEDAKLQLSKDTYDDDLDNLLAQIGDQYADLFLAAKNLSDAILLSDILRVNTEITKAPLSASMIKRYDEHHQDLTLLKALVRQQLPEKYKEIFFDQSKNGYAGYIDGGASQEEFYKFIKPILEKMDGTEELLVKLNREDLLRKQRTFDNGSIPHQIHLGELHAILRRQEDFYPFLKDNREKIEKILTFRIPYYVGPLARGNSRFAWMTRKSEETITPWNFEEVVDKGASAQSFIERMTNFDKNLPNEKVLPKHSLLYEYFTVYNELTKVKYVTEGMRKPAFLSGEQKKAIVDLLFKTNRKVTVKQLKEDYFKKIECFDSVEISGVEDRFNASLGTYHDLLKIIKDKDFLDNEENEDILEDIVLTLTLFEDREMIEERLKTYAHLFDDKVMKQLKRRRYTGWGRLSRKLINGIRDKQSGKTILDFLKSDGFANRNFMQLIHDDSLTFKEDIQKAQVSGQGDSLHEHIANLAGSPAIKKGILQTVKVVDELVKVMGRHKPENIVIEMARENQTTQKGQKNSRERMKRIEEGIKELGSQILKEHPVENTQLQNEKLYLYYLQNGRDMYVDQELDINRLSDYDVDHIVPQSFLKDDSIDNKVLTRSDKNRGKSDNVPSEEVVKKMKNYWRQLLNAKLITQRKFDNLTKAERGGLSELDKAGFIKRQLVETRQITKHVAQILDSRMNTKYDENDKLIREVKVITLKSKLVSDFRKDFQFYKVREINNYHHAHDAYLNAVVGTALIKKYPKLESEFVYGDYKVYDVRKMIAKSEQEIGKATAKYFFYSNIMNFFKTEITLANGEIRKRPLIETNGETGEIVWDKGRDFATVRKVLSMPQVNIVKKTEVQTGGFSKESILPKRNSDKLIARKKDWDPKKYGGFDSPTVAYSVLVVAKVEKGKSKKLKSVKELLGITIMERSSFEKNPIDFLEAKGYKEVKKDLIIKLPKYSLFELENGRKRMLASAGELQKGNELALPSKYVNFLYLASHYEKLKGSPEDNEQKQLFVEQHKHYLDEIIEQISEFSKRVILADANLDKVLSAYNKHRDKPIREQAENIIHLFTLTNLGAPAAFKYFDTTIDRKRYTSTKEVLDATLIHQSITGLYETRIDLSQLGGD

In the case of `OC[C@H]1Nc2ccc(-c3cccc(F)c3)cc2[C@H]2[C@@H]1CCN2Cc1ccncc1` [BRD7087, ((3aR,4S,9bR)-8-(3-Fluorophenyl)-1-(pyridin-4-ylmethyl)-2,3,3a,4,5,9b-hexahydro-1H-pyrrolo[3,2-c]quinolin-4-yl) methanol], the “cytotoxicity (in words)” value in data set [1] was “non-cytotoxic”. Moreover, the solubility at 24 h in the data set “physchem” came out at 75 µM (≈ 29.2 µg/mL).

Turning to `Cc1ccc(S(=O)(=O)N2CC[C@@H]3[C@H](CO)Nc4ccc(-c5ccccc5F)cc4[C@@H]32)cc1` [BRD0539, ((3aR,4R,9bR)-8-(2-fluorophenyl)-1-tosyl-2,3,3a,4,5,9b-hexahydro-1H-pyrrolo[3,2-c]quinolin-4-yl) methanol], the “lowering in the melting temperature of SpCas9” value at SpCas9 [2] was roughly 2.5 °C. Besides, the “reversibility of SpCas9 inhibition (in words)” value at SpCas9 [3] was “reversible inhibition”.

For the origin of these results see patent US12391685B2, “Inhibitors of RNA-guided nuclease target binding and uses thereof” (THE BROAD INSTITUTE, INC., priority 2018, dated 2025).
